Usually IC50 stands for the point on the concentration scale where inhibition reaches its midpoint.

What all share (experiment): Screen Quest Fluo-8 No Wash Calcium Assay (Bz-ATP evoked Ca2+ influx, FLIPR)
Type in all cases: cell-based

For test [1], the target named is T1, P2X7 receptor (Mus musculus, UniProt Q9Z1M0).
T1 construct: mP2X7 (IC50; nM); other: mP2X7; HEK-293 cells stably transfected with P2X7 receptor, Bz-ATP at EC80, Fluo-8 NW; potency
T1 sequence (Q9Z1M0 1-595): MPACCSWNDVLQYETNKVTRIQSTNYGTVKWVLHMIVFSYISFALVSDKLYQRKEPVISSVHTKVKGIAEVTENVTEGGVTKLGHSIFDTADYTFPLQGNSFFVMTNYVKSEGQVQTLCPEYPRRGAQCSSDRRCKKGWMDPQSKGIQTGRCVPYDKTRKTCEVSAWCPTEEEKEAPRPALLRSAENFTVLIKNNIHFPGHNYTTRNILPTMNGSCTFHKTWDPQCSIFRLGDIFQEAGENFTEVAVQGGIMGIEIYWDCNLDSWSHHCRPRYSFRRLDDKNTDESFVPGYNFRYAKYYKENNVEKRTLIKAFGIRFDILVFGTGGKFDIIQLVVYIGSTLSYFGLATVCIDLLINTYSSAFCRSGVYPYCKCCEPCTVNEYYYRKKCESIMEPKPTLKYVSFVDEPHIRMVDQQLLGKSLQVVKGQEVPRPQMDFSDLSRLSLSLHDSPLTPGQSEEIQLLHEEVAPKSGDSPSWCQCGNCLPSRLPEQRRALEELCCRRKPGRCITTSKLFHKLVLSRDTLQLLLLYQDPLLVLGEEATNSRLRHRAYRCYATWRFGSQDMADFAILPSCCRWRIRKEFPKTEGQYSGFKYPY
The note with it: mP2X7; HEK-293 cells stably transfected with P2X7 receptor, Bz-ATP at EC80, Fluo-8 NW; potency ranges A-D. The method in brief:
(§1)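 Compounds were added to Fluo-8-loaded P2X7-transfected HEK-293 cells 5 min before an EC80 Bz-ATP challenge, and Ca2+ influx was then recorded for 3 min. Buffer held 0.3 mM Ca2+ and no Mg2+. Inhibition was normalised to A438079, giving IC50 values.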

Test [2] concerns the target T2, P2X7 receptor (Rattus norvegicus, UniProt Q64663).
T2 construct: rP2X7 (IC50; nM); other: rP2X7; HEK-293 cells stably transfected with P2X7 receptor, Bz-ATP at EC80, Fluo-8 NW; potency
T2 sequence (Q64663 1-595): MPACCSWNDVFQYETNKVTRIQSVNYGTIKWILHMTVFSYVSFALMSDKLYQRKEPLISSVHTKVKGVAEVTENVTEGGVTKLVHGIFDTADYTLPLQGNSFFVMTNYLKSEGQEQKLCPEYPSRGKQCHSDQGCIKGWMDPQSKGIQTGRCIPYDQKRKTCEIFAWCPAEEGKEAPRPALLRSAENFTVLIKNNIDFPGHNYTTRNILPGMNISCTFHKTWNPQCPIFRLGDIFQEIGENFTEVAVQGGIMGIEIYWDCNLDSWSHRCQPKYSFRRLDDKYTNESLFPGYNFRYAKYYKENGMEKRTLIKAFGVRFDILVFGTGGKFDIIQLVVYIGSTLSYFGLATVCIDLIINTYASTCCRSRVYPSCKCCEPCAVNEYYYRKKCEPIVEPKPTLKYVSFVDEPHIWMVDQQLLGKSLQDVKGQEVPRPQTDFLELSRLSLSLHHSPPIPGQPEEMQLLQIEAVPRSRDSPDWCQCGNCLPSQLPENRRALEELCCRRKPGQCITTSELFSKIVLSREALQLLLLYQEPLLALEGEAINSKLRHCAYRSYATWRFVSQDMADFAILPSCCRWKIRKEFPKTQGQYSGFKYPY
The note with it: rP2X7; HEK-293 cells stably transfected with P2X7 receptor, Bz-ATP at EC80, Fluo-8 NW; potency ranges A-D. The essentials: as §1

Test [3] deals with T3, P2X7 receptor (Homo sapiens, UniProt Q99572).
T3 sequence (Q99572 1-595): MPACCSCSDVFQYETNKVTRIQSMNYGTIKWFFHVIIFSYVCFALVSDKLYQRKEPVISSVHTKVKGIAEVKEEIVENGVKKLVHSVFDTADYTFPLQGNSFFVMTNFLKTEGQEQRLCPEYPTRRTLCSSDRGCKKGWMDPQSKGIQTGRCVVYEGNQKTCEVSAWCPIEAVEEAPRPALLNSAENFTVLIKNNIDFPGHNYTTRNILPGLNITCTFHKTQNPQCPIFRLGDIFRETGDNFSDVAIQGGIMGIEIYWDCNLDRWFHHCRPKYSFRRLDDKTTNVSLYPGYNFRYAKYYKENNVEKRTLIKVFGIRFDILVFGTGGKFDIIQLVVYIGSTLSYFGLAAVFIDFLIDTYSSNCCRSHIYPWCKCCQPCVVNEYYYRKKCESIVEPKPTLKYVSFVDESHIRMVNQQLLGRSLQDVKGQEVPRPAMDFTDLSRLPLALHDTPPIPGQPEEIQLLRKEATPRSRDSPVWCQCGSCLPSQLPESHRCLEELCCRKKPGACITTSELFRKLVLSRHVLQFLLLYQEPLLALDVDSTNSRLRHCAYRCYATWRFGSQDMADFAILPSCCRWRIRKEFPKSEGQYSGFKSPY
Set-up: hP2X7 (IC50; nM); other: hP2X7; HEK-293 cells stably transfected with P2X7 receptor, Bz-ATP at EC80, Fluo-8 NW; potency. Particulars: hP2X7; HEK-293 cells stably transfected with P2X7 receptor, Bz-ATP at EC80, Fluo-8 NW; potency ranges A-D. The method in brief: as §1

On to `COc1cccc(Cn2c(Cc3c(F)cccc3Cl)noc2=O)c1` [Example 57, 3-[(2-chloro-6-fluorophenyl)methyl]-4-[(3-methoxyphenyl)methyl]-4,5-dihydro-1,2,4-oxadiazol-5-one], for which the IC50 on P2X7 receptor [1], at P2X7 receptor [2] and at P2X7 receptor [3] was 1000 to 10000 nM each time.
Regarding `O=c1onc(Cc2c(F)cccc2Cl)n1Cc1cccc(C(F)(F)F)c1Cl` [Example 58, 4-{[2-chloro-3-(trifluoromethyl)phenyl]methyl}-3-[(2-chloro-6-fluorophenyl)methyl]-4,5-dihydro-1,2,4-oxadiazol-5-one], the IC50 on P2X7 receptor [1], at P2X7 receptor [2] and at P2X7 receptor [3] was 1000 to 10000 nM in each case.
With `O=c1onc(Cc2c(F)cccc2Cl)n1Cc1ccccn1` [Example 62, 3-[(2-chloro-6-fluorophenyl)methyl]-4-(pyridin-2-ylmethyl)-4,5-dihydro-1,2,4-oxadiazol-5-one], the IC50 on P2X7 receptor [1], at P2X7 receptor [2] and at P2X7 receptor [3] was greater than 10000 nM in each case.
In the case of `O=c1onc(Cc2c(F)cccc2Cl)n1Cc1ccc(C(F)(F)F)cc1` [Example 63, 3-[(2-chloro-6-fluorophenyl)methyl]-4-{[4-(trifluoromethyl)phenyl]methyl}-4,5-dihydro-1,2,4-oxadiazol-5-one], the IC50 at P2X7 receptor [1], on P2X7 receptor [2] and at P2X7 receptor [3] was 1000 to 10000 nM in each case.
As for `Cc1nc(C(F)(F)F)ccc1Cn1c(Cc2c(F)cccc2Cl)noc1=O` [Example 64, 3-[(2-chloro-6-fluorophenyl)methyl]-4-{[2-methyl-6-(trifluoromethyl)pyridin-3-yl]methyl}-4,5-dihydro-1,2,4-oxadiazol-5-one], the values for the IC50 on P2X7 receptor [1], at P2X7 receptor [2] and on P2X7 receptor [3] were greater than 10000 nM, greater than 10000 nM and 1000 to 10000 nM, respectively.
In the case of `Cc1ccc(Cn2c(Cc3c(F)cccc3Cl)noc2=O)cc1` [Example 67, 3-[(2-chloro-6-fluorophenyl)methyl]-4-[(4-methylphenyl)methyl]-4,5-dihydro-1,2,4-oxadiazol-5-one], the IC50 on P2X7 receptor [1], on P2X7 receptor [2] and on P2X7 receptor [3] was 1000 to 10000 nM in each case.
Consider `COc1ccc(Cn2c(Cc3c(F)cccc3Cl)noc2=O)cc1` [Example 68, 3-[(2-chloro-6-fluorophenyl)methyl]-4-[(4-methoxyphenyl)methyl]-4,5-dihydro-1,2,4-oxadiazol-5-one], for which the IC50 at P2X7 receptor [1] was greater than 10000 nM; on P2X7 receptor [2], greater than 10000 nM; at P2X7 receptor [3] it was 1000 to 10000 nM.
For `O=c1onc(Cc2c(F)cccc2Cl)n1CC1CCC1` [Example 69, 3-[(2-chloro-6-fluorophenyl)methyl]-4-(cyclobutylmethyl)-4,5-dihydro-1,2,4-oxadiazol-5-one], the IC50 on P2X7 receptor [1] was in the range of 1000 to 10000 nM; at P2X7 receptor [2], 200 to 1000 nM; on P2X7 receptor [3], 1000 to 10000 nM.
In the case of `O=c1onc(Cc2c(F)cccc2Cl)n1CC1CCC2(CC1)OCCO2` [Example 70, 3-[(2-chloro-6-fluorophenyl)methyl]-4-{1,4-dioxaspiro[4.5]decan-8-ylmethyl}-4,5-dihydro-1,2,4-oxadiazol-5-one], the IC50 at P2X7 receptor [1] lay in the range of 1000 to 10000 nM; at P2X7 receptor [2], 1000 to 10000 nM; on P2X7 receptor [3], 200 to 1000 nM.
Turning to `O=c1onc(Cc2cccc(C(F)(F)F)c2Cl)n1Cc1ccc(F)cc1` [Example 72, 3-{[2-chloro-3-(trifluoromethyl)phenyl]methyl}-4-[(4-fluorophenyl)methyl]-4,5-dihydro-1,2,4-oxadiazol-5-one], the IC50 on P2X7 receptor [1], on P2X7 receptor [2] and on P2X7 receptor [3] was greater than 10000 nM in each case.
Turning to `O=c1onc(Cc2ccc(Cl)cc2Cl)n1Cc1ccc(F)cc1` [Example 74, 3-[(2,4-dichlorophenyl)methyl]-4-[(4-fluorophenyl)methyl]-4,5-dihydro-1,2,4-oxadiazol-5-one], the IC50 at P2X7 receptor [1], at P2X7 receptor [2] and at P2X7 receptor [3] was 1000 to 10000 nM each time.
Regarding `O=c1onc(Cc2ccccc2F)n1Cc1ccc(F)cc1` [Example 75, 3-[(2-fluorophenyl)methyl]-4-[(4-fluorophenyl)methyl]-4,5-dihydro-1,2,4-oxadiazol-5-one], the IC50 on P2X7 receptor [1], at P2X7 receptor [2] and at P2X7 receptor [3] was 1000 to 10000 nM in each case.
Consider `CC(C)(c1c(F)cccc1Cl)c1noc(=O)n1Cc1ccc(F)cc1` [Example 77, 3-[2-(2-chloro-6-fluorophenyl)propan-2-yl]-4-[(4-fluorophenyl)methyl]-4,5-dihydro-1,2,4-oxadiazol-5-one], for which the IC50 at P2X7 receptor [1], at P2X7 receptor [2] and on P2X7 receptor [3] was greater than 10000 nM throughout.
Regarding `CC(c1c(F)cccc1Cl)c1noc(=O)n1Cc1ccc(F)cc1` (stereo not drawn) [Example 78, 3-[1-(2-chloro-6-fluorophenyl)ethyl]-4-[(4-fluorophenyl)methyl]-4,5-dihydro-1,2,4-oxadiazol-5-one], the IC50 on P2X7 receptor [1], on P2X7 receptor [2] and at P2X7 receptor [3] was greater than 10000 nM throughout.
For `O=c1onc(Cc2ccncc2)n1Cc1ccc(F)cc1` [Example 79, 4-[(4-fluorophenyl)methyl]-3-(pyridin-4-ylmethyl)-4,5-dihydro-1,2,4-oxadiazol-5-one], the IC50 on P2X7 receptor [1], at P2X7 receptor [2] and at P2X7 receptor [3] was greater than 10000 nM throughout.
For `O=c1onc(Cc2ccc(F)cc2F)n1Cc1ccc(F)cc1` [Example 80, 3-[(2,4-difluorophenyl)methyl]-4-[(4-fluorophenyl)methyl]-4,5-dihydro-1,2,4-oxadiazol-5-one], the IC50 at P2X7 receptor [1] was greater than 10000 nM; at P2X7 receptor [2], 1000 to 10000 nM; on P2X7 receptor [3], 1000 to 10000 nM.
As for `O=c1onc(Cc2c(F)cccc2Cl)n1CC1CC1` [Example 83, 3-[(2-chloro-6-fluorophenyl)methyl]-4-(cyclopropylmethyl)-4,5-dihydro-1,2,4-oxadiazol-5-one], the IC50 on P2X7 receptor [1], on P2X7 receptor [2] and at P2X7 receptor [3] was greater than 10000 nM each time.
On to `O=c1onc(Cc2c(F)cccc2Cl)n1CC1CCCOC1` (stereo not drawn) [Example 89, 3-[(2-chloro-6-fluorophenyl)methyl]-4-(oxan-3-ylmethyl)-4,5-dihydro-1,2,4-oxadiazol-5-one], for which the IC50 on P2X7 receptor [1] is greater than 10000 nM; at P2X7 receptor [2] it was 1000 to 10000 nM; on P2X7 receptor [3] it was 1000 to 10000 nM.
As for `CCC#CCn1c(Cc2c(F)cccc2Cl)noc1=O` [Example 90, 3-[(2-chloro-6-fluorophenyl)methyl]-4-(pent-2-yn-1-yl)-4,5-dihydro-1,2,4-oxadiazol-5-one], the IC50 at P2X7 receptor [1] was greater than 10000 nM; on P2X7 receptor [2], 1000 to 10000 nM; at P2X7 receptor [3] it was 1000 to 10000 nM.
